Data taken from patent US20240368174A1, “Antiviral Heterocyclic Compounds” (Enanta Pharmaceuticals, Inc., priority 2023, published 2024).

test system: HMPV clinical isolate A2 strain TN 94-49; assay: HMPV antiviral assay, Method 2 (LLC-MK2 cells with CP-100-356, ATP-Lite); assay type: cell-based; conditions: human metapneumovirus, 168 h; hMPV A2 TN/94-49, LLC-MK2 cells with 4 μM CP-100-356, 7 days, ATP-Lite
Outline: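 EC50 comes from a four-parameter fit of percent cell viability (ATP-Lite, normalized to virus-only and cell-only wells) after 7 days at 37 °C. Infection used HMPV A2 TN 94-49 at MOI 0.16 in LLC-MK2 cells, with 2 μM P-gp inhibitor CP-100-356 and 2 μg/mL TPCK-trypsin final; dose range 200 nM top, 2.5-fold, 10 points, duplicate.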

`COc1cc(C(=O)NC[C@](O)(c2cc3c(c(-n4cc5cc(F)ccc5n4)n2)OC[C@]3(C)C(N)=O)C2CC2)cc2cn(C3CC3)nc12` [Example 719] and `COc1cc(C(=O)NC[C@](O)(c2cc3c(c(-c4ccn5nc(C)cc5c4)n2)OC[C@]3(C)C(N)=O)C2CC2)cc2cn(C3CC3)nc12` [Example 838] cannot be ordered by EC50: over 200 nM for the first, over 200 nM for the second.

First: COc1cc(-c2nc([C@@](O)(CNC(=O)c3cc(OC4CC4)c4nn(C5CC5)cc4c3)c3ccccc3)cc3c2OC[C@]3(C)C(N)=O)c(F)cn1 [Example 900]
Second: COc1cc(-c2nc([C@@](O)(CNC(=O)c3cc(OC)n4nc(C5CC5)cc4c3)c3ccccc3)cc3c2OC[C@]3(C)C(N)=O)c(F)cn1 [Example 639]
The EC50 of the first is higher: over 200 nM for the first, under 200 nM for the second.

`COc1cc(-c2nc([C@@](O)(CNC(=O)c3cc(OC)c4nn(C5CC5)cc4c3)C(F)(F)F)cc3c2OC[C@]3(C)C(N)=O)c(F)cn1` [Example 831] and `COc1cc(-c2nc([C@@](O)(CNC(=O)c3cc(OC)c4nn(C5CC5)cc4c3)C3CC3)cc3c2OC[C@]3(C)C(N)=O)c(Cl)cn1` [Example 834] cannot be ordered by EC50: over 200 nM for the first, over 200 nM for the second.

Compared with `COc1cc(C(=O)NC[C@@](O)(c2ccc(F)cc2)c2cc3c(c(-c4ccnc(C)c4Cl)n2)OC[C@]3(C)C(N)=O)cc2cn(C(F)F)nc12` [Example 648], `COc1nccc(-c2nc([C@@](O)(CNC(=O)c3cc(OC4CC4)c4nn(C(F)F)cc4c3)c3ccccc3)cc3c2OC[C@]3(C)C(N)=O)c1Cl` [Example 901] is lower in EC50: over 200 nM for the first, under 200 nM for the second. The second is the more potent here.

`COc1cc(C(=O)NC[C@](O)(c2cc3c(c(-c4c(F)cncc4F)n2)OC[C@]3(C)C(N)=O)C2CC2)cc2cn(C3CC3)nc12` [Example 729] and `COc1cc(C(=O)NC[C@](O)(c2cc3c(c(-c4cc(C5CC5)ncc4F)n2)OC[C@]3(C)C(N)=O)C2CC2)cc2cn(C3CC3)nc12` [Example 723] cannot be ordered by EC50: under 200 nM for the first, under 200 nM for the second.

First: COc1cc(C(=O)NC[C@](O)(c2cc3c(c(-c4ccnc(C(F)(F)F)c4)n2)OC[C@]3(C)C(N)=O)C2CC2)cc2cn(C3(F)CC3)nc12 [Example 761]
Second: COc1cc(C(=O)NC[C@](O)(c2cc3c(c(-c4ccnc(C(F)(F)F)c4)n2)OC[C@]3(C)C(N)=O)C2CC2)cc2cn(C(F)F)nc12 [Example 759]
The EC50 of the first is lower: under 200 nM for the first, over 200 nM for the second. The first is the more potent here.

Compared with `COc1nccc(-c2nc([C@](O)(CNC(=O)c3cc(OC)c4nn(C5CC5)cc4c3)c3cccc(F)c3)cc3c2OC[C@]3(C)C(N)=O)c1Cl` [Example 876], `COc1nccc(-c2nc([C@@](O)(CNC(=O)c3cc(OC)c4nn(C5CC5)cc4c3)C3CC3)cc3c2OC[C@]3(C)C(N)=O)c1F` [Example 802] is lower in EC50: over 200 nM for the first, under 200 nM for the second. The second is the more potent here.

`COc1cc(C(=O)NC[C@](O)(c2cc3c(c(-n4ccc5ccccc54)n2)OC[C@]3(C)C(N)=O)C(F)(F)F)cc2cn(C(F)F)nc12` [Example 843] and `COc1cc(C(=O)NC[C@](O)(c2cc3c(c(-c4ccnc(C(F)F)c4F)n2)OC[C@]3(C)C(N)=O)C2CC2)cc2cn(C3CC3)nc12` [Example 803] cannot be ordered by EC50: under 200 nM for the first, under 200 nM for the second.

`COc1cc(C(=O)NC[C@](O)(c2cc3c(c(-c4ccnc(C(C)C)c4Cl)n2)OC[C@]3(C)C(N)=O)C2CC2)cc2oc(C3CC3)nc12` [Example 909] and `COc1cc(C(=O)NC[C@](O)(c2cc3c(c(-c4ccnc(C(C)C)c4Cl)n2)OC[C@]3(C)C(N)=O)C2CC2)cc2cc(C3CC3)nn12` [Example 910] cannot be ordered by EC50: over 200 nM for the first, over 200 nM for the second.

Compared with `COc1nccc(-c2nc([C@@](O)(CNC(=O)c3cc(OC)n4nc(C5CC5)cc4c3)C(C)C)cc3c2OC[C@]3(C)C(N)=O)c1Cl` [Example 890], `COc1cc(C(=O)NC[C@@](O)(c2ccccc2)c2cc3c(c(-c4ccnc(F)c4Cl)n2)OC[C@]3(C)C(N)=O)cn2cc(C3CC3)nc12` [Example 664] is lower in EC50: over 200 nM for the first, under 200 nM for the second. The second is the more potent here.

same assay, conditions: human metapneumovirus; hMPV A2 TN/94-49, LLC-MK2 cells with CP-100-356, Method 2

`Cc1nccc(-c2nc([C@@](O)(CNC(=O)c3cc(OC4CC4)c4nn(C5(F)CC5)cc4c3)C3CC3)cc3c2OC[C@]3(C)C(N)=O)c1Cl` [Example 602] and `Cc1nccc(-c2nc([C@@](O)(CNC(=O)c3cc(OC4CC4)c4nn(C5CC5)cc4c3)C3CC3)cc3c2OC[C@]3(C)C(N)=O)c1Cl` [Example 600] cannot be ordered by EC50: under 200 nM for the first, under 200 nM for the second.

`COc1nccc(-c2nc([C@@](O)(CNC(=O)c3cc(OC)c4nc(C5CC5)oc4c3)C(F)(F)F)cc3c2OC[C@]3(C)C(N)=O)c1Cl` [Example 545] and `COc1nccc(-c2nc([C@@](O)(CNC(=O)c3cc(OC)c4nc(C(F)F)oc4c3)c3ccccc3)cc3c2OC[C@]3(C)C(N)=O)c1Cl` [Example 557] cannot be ordered by EC50: under 200 nM for the first, under 200 nM for the second.

`COc1cc(C(=O)NC[C@](O)(c2cc3c(c(-c4c(C)cncc4C)n2)OC[C@]3(C)C(N)=O)C2CC2)cc2cn(C3CC3)nc12` [Example 431] and `COc1cc(C(=O)NC[C@](O)(c2cc3c(c(-c4c(C)cncc4F)n2)OC[C@]3(C)C(N)=O)C2CC2)cc2cn(C3CC3)nc12` [Example 435] cannot be ordered by EC50: under 200 nM for the first, under 200 nM for the second.

Going from `COc1cc(C(=O)NCC(O)(c2cc3c(c(-c4cc(Cl)c(F)cc4F)n2)OC[C@]3(C)C(N)=O)c2ccc(Cl)s2)cc2cn(C3CC3)nc12` (some centres unmarked) [Example 472] to `COc1cc(C(=O)NC[C@@](O)(c2cccc(S(C)(=O)=O)c2)c2cc3c(c(-c4cc(Cl)c(F)cc4F)n2)OC[C@]3(C)C(N)=O)cc2cn(C3CC3)nc12` [Example 483], the EC50 falls from over 200 nM to under 200 nM.

`COc1cc(C(=O)NC[C@@](O)(c2cccc(F)c2)c2cc3c(c(-c4ccc(C(C)(C)O)cc4)n2)OC[C@]3(C)C(N)=O)cc2cn(C3(F)CC3)nc12` [Example 397] and `COc1cc(C(=O)NC[C@](O)(c2cccc(F)c2)c2cc3c(c(-c4ccc(C(C)(C)O)cc4)n2)OC[C@]3(C)C(N)=O)cc2cn(C3(F)CC3)nc12` [Example 398] cannot be ordered by EC50: over 200 nM for the first, over 200 nM for the second.

`COc1cc([C@](O)(CNC(=O)c2cc(OC)c3nn(C4CC4)cc3c2)c2cc3c(c(-c4cccc(Cl)c4Cl)n2)OC[C@]3(C)C(N)=O)ccn1` [Example 494] and `COc1nccc(-c2nc([C@@](O)(CNC(=O)c3cc(OC)c4nn(C5CC5)cc4c3)c3ccccc3)cc3c2OC[C@]3(C)C(N)=O)c1Cl` [Example 553] cannot be ordered by EC50: under 200 nM for the first, under 200 nM for the second.

`C[C@]1(C(N)=O)COc2c1cc([C@@](O)(CNC(=O)c1cc(Cl)c3nn(C4CC4)cc3c1)C(F)(F)F)nc2-c1ccnc(C(F)(F)F)c1Cl` [Example 535] and `C[C@]1(C(N)=O)COc2c1cc([C@@](O)(CNC(=O)c1cc(Cl)c3nn(C4CC4)cc3c1)C1CC1)nc2-c1cc(C(F)(F)F)ncc1F` [Example 353] cannot be ordered by EC50: under 200 nM for the first, under 200 nM for the second.

`COc1cc(C(=O)NC[C@](O)(c2cc3c(c(-c4ccnc(Cl)c4C)n2)OC[C@]3(C)C(N)=O)C2CC2)cc2cn(C3CC3)nc12` [Example 427] and `COc1cc(C(=O)NC[C@](O)(c2cc3c(c(-c4ccnc(F)c4C)n2)OC[C@]3(C)C(N)=O)C2CC2)cc2cn(C3CC3)nc12` [Example 383] cannot be ordered by EC50: under 200 nM for the first, under 200 nM for the second.

Compared with `C[C@]1(C(N)=O)COc2c1cc([C@@](O)(CNC(=O)c1ccc3nc(C4CC4)oc3c1)c1ccccc1)nc2-c1cc(C(F)F)c(F)cc1F` [Example 311], `C[C@]1(C(N)=O)COc2c1cc([C@@](O)(CNC(=O)c1ccc3nc(C(F)F)oc3c1)c1ccccc1)nc2-c1cc(Cl)c(F)cc1F` [Example 222] is higher in EC50: under 200 nM for the first, over 200 nM for the second.

`COc1cc(C(=O)NC[C@@](O)(c2cccc(F)c2)c2cc3c(c(-c4ccnc(C)c4Cl)n2)OC[C@]3(C)C(N)=O)cc2cn(C(F)F)nc12` [Example 538] and `Cc1nccc(-c2nc([C@@](O)(CNC(=O)c3cc(OC4CC4)c4nn(C5(F)CC5)cc4c3)c3cccc(F)c3)cc3c2OC[C@]3(C)C(N)=O)c1Cl` [Example 605] cannot be ordered by EC50: under 200 nM for the first, under 200 nM for the second.

`COc1cc(C(=O)NC[C@@](O)(c2cccc(F)n2)c2cc3c(c(-c4cc(Cl)c(F)cc4F)n2)OC[C@]3(C)C(N)=O)cc2cc(C3CC3)nn12` [Example 206] and `COc1cc(C(=O)NC[C@@](O)(c2cccc(F)n2)c2cc3c(c(-c4cc(Cl)c(F)cc4F)n2)OC[C@]3(C)C(N)=O)cc2cn(C3(F)CC3)nc12` [Example 204] cannot be ordered by EC50: under 200 nM for the first, under 200 nM for the second.

`COc1cc(C(=O)NC[C@](O)(c2cc3c(c(-c4ccnc(Cl)c4Cl)n2)OC[C@]3(C)C(N)=O)C2CC2)cn2cc(C3CC3)nc12` [Example 578] and `COc1cc(C(=O)NC[C@](O)(c2cc3c(c(-c4ccnc(Cl)c4Cl)n2)OC[C@]3(C)C(N)=O)C2(F)CC2)cn2cc(C3(F)CC3)nc12` [Example 522] cannot be ordered by EC50: under 200 nM for the first, under 200 nM for the second.

Compared with `Cc1nccc(-c2nc([C@@](O)(CNC(=O)c3cc(OC4CC4)c4nn(C5CC5)cc4c3)c3cccc(F)c3)cc3c2OC[C@]3(C)C(N)=O)c1Cl` [Example 603], `COc1cc(C(=O)NC[C@](O)(c2cc3c(c(-c4ccnc(F)c4)n2)OC[C@]3(C)C(N)=O)C2CC2)cc2cn(C3CC3)nc12` [Example 121] is higher in EC50: under 200 nM for the first, over 200 nM for the second.

`COc1cc(C(=O)NC[C@@](O)(c2cccc(F)c2)c2cc3c(c(-c4cc(C(F)(F)F)c(F)cc4F)n2)OC[C@]3(C)C(N)=O)cc2cn(C(F)F)nc12` [Example 301] and `COc1cc([C@](O)(CNC(=O)c2cc(OC)c3nn(C(F)F)cc3c2)c2cc3c(c(-c4cccc(Cl)c4Cl)n2)OC[C@]3(C)C(N)=O)cc(OC)n1` [Example 498] cannot be ordered by EC50: under 200 nM for the first, under 200 nM for the second.

Compared with `COc1cc(C(=O)NCC(O)(c2cccc(F)c2)c2cc3c(c(-c4cccc(Cl)c4C#N)n2)OC[C@]3(C)C(N)=O)cc2cn(C3(F)CC3)nc12` (some centres unmarked) [Example 399], `C[C@]1(C(N)=O)COc2c1cc([C@@](O)(CNC(=O)c1ccc3nc(C4(F)CC4)oc3c1)c1ccccc1)nc2-c1cc(Cl)c(F)cc1F` [Example 219] is lower in EC50: over 200 nM for the first, under 200 nM for the second. The second is the more potent here.

Going from `COc1cc(C(=O)NC[C@](O)(c2cc3c(c(-n4ccc5ccncc54)n2)OC[C@]3(C)C(N)=O)C2CC2)cc2cn(C3CC3)nc12` [Example 448] to `Cc1nc2c(OC3CC3)cc(C(=O)NC[C@@](O)(c3ccccc3)c3cc4c(c(-c5cc(Cl)c(F)cc5F)n3)OC[C@]4(C)C(N)=O)cc2o1` [Example 234], the EC50 falls from over 200 nM to under 200 nM. The second is the more potent here.

For `C[C@]1(C(N)=O)COc2c1cc([C@@](O)(CNC(=O)c1cc(OC(F)F)c3ncc(Cl)cc3c1)c1ccccc1)nc2-c1cc(Cl)c(F)cc1F` [Example 231], the EC50 was under 200 nM.
